Peptide text beside a SMILES is read from it. * marks the point of attachment. 5FAM = O=C1OC2(c3ccc(O)cc3Oc3cc(O)ccc32)c2ccc(C(=O)*)cc21

For series [1] the following is noted: mass spectroscopy, animal model.
Series [2] in a line: ROS-scavenging activity, DPPH assay (SFNs). It is filed as biochemical. From the text:
Osteoarthritis (OA) represents a musculoskeletal pathological condition characterized by chondrocytes apoptosis, extracellular matrix degradation and consequent cartilage degeneration; the main mechanisms involved in OA onset seem to be oxidative stress and the overproduction of pro-inflammatory cytokines, such as interleukin-1β (IL-1β) and tumour necrosis factor-α (TNF-α). Systemic therapy with anti-inflammatory drugs represents the “gold standard” in OA treatment, and Celecoxib is the first choice. However, it presents limited water solubility, poor in vivo bioavailability, fast metabolism and bloodstream clearance^2. Nanomedicine is considered a good strategy to overcome these problems; in fact, nanosystems are able to improve the solubility and the bioavailability of poorly-soluble drugs, and to control/target the drug release, avoiding undesired side effects. Thanks to its biocompatibility and biodegradability, silk fibroin represents the ideal biomaterial candidate for the nanoparticle production. In this study, we selected silk fibroin nanoparticles (SFNs) as the delivery system for two anti-inflammatory hydrophobic drugs: celecoxib (CXB) and curcumin (CUR). […] The safety and efficacy of nanosystems were determined in terms of hemolytic properties, cytotoxicity, ROS-scavenging activity and anti-inflammatory potency in an OA in vitro cell model. […]
For orientation: DPPH is a stable violet radical that fades when it is reduced.

A further series concerns intracellular S. aureus. Briefly: Intracellular antibacterial activity in keratinocytes. It is filed as cell-based, Staphylococcus aureus. The note with it: HaCaT cells.
The conditions of series [3]: rat, in vivo.
Method: In in vivo studies, male Sprague−Dawley rats received a femoral intravenous infusion of IND or oral administrations of MPs and free IND; the plasma of rats was analyzed by HPLC over time in order to evaluate the absolute bioavailability of oral doses.
The conditions of series [4]: Franz cells, porcine cornea, preliminary data, relevant variability. The method, then:
To assess their ex vivo corneal permeability, permeation experiments were carried out using fresh and whole porcine corneas mounted on Franz cells.

Series [5] deals with HeLa and G361. Briefly: Photodynamic ROS production. The series is classed as cell-based. Particulars: TMPyP: 5 μM, 25 Jcm^−2; ZnTPPS4: 0.25 μM, 5 Jcm^−2. Here is the method:
(§1) Photodynamic therapy (PDT) is currently another option for the treatment of tumors. This therapy is a combination of a photodynamically-active substance and light of a suitable wavelength. Two tumor cell cultures—HeLa and G361 were used for the in vitro study. Cells were cultured in 96-well plates with TMPyP and ZnTPPS4 photosensitizers at concentrations of 0.25 μM, 0.5 μM and 5 μM. As a light source, a diode emitter with a wavelength of 414 nm and a radiation intensity of 5 Jcm^−2, 25 Jcm^−2 was used and at irradiation times of 1 min 33 s, 7min 43 s. In this study, three measurement methods were used—a viability test (MTT), determination of ROS production and monitoring of changes in membrane potential (JC1). […] A suitable combination of photosensitizer and radiation may be an effective therapy for the treatment of cancer.

Series [6] concerns HeLa and G361. As to the kind of experiment: Photodynamic viability test (MTT). Particulars: 414 nm irradiation. It is filed as cell-based. The method, then: as §1
For series [7] the following is noted: no reference given; cited from earlier work.
The subject of series [8] is Human Corneal Epithelial (HCE) cells. Briefly: Inflammation model in HCE cells, secreted IL-6 by ELISA. The series is classed as cell-based. Particulars: 72 h. Background: In an ELISA, binding on a coated surface is turned into a signal by an enzyme label.
A short description of series [9]: Stability of rhNGF formulated solutions. It is filed as physicochemical. Here is the method: Drug product formulation. The development of the formulation was addressed to obtain a stable rhNGF solution with suitable characteristics for ocular instillation (pH and osmolality in particular). Excipients already used in ophthalmic preparation were preferred. The stability of rhNGF formulated solutions at different concentrations was investigated in the range of temperature −20 °C–+25 °C. […] Chemical oxidative instability was minimized by the appropriate choice of preparation procedures, lowering O2 head space, using inertized containers and by the addition of an antioxidant. Consequently, methionine as component of formulation, O2 containment during the preparation and O2 head space reduction after filling and before sealing of the container were introduced.

The conditions of series [10]: after 3 h of exposure to serum proteins.
From the text: (§2) Here, a novel thrombolytic nanoagent is realized by conjugating directly the clinical formulation of tPA to the porous structure of soft discoidal polymeric nanoconstructs (tPA-DPNs).
For another series, the system named is blood clots. Briefly: Blood clot resolution in murine mesentery venules. It is filed as in vivo.

From the text for blood clots: as §2
Method for chondrocytes: The safety and efficacy of nanosystems were determined in terms of hemolytic properties, cytotoxicity, ROS-scavenging activity and anti-inflammatory potency in an OA in vitro cell model. In particular, chondrocytes were stimulated with IL-1β to simulate an inflammatory condition, and treated with nanoparticles or free drugs.

Consider `CN(Cc1nc2c(N)nc(N)nc2[nH]c1=O)c1ccc(C(=O)N[C@@H](CCC(=O)O)C(=O)O)cc1` [7OH-MTX, 7-hydroxymethotrexate], for which, in series [1], the “metabolite status in vivo” value is “not the major metabolite”.
`COc1cc(/C=C/C(=O)CC(=O)/C=C/c2ccc(O)c(OC)c2)ccc1O` [CUR, Curcumin]: the cytotoxicity on chondrocytes entry in the series on chondrocytes was “highly cytotoxic”.
`Cc1ccc(-c2cc(C(F)(F)F)nn2-c2ccc(S(N)(=O)=O)cc2)cc1` [CXB, celecoxib]: the antioxidant effect result in series [2] is listed as “inhibitory”. Also, the cytotoxicity on chondrocytes entry in the series with chondrocytes is on record as “highly cytotoxic”.
As for `CNC(C)C1CCC(N)C(OC2C(N)CC(N)C(OC3OCC(C)(O)C(NC)C3O)C2O)O1` (stereo not drawn) [GM, gentamicin], the intracellular antibacterial activity entry in the series on intracellular S. aureus was “significant intracellular activity”.
As for `COc1ccc2c(c1)c(CC(=O)O)c(C)n2C(=O)c1ccc(Cl)cc1` [IND, indomethacin], the oral bioavailability entry in [3] was “about 20%”.
`CC[C@H](C)[C@H](NC(=O)[C@H](CCCCN)NC(=O)[C@@H](NC(=O)[C@H](CCC(N)=O)NC(=O)[C@H](CCCNC(=N)N)NC(=O)CNC(=O)CNC(=O)c1ccc2c(c1)C(=O)OC21c2ccc(O)cc2Oc2cc(O)ccc21)[C@@H](C)CC)C(=O)N[C@@H](Cc1c[nH]c2ccccc12)C(=O)N[C@@H](Cc1ccccc1)C(=O)N[C@@H](CCC(N)=O)C(=O)N[C@@H](CC(N)=O)C(=O)N[C@@H](CCCNC(=N)N)C(=O)N[C@@H](CCCNC(=N)N)C(=O)N[C@@H](CCSC)C(=O)N[C@@H](CCCCN)C(=O)N[C@@H](Cc1c[nH]c2ccccc12)C(=O)N[C@@H](CCCCN)C(=O)N[C@@H](CCCCN)C(=O)O` [PNTarg]: in series [4], the “permeability coefficient / diffusion relative to PNT” value is listed as “did not influence its diffusion with respect to PNT”.
With `CC[C@H](C)[C@H](NC(=O)[C@H](CCCCN)NC(=O)[C@@H](NC(=O)[C@H](Cc1c[nH]c2ccccc12)NC(=O)[C@H](Cc1ccccc1)NC(=O)[C@H](CCC(N)=O)NC(=O)[C@H](CC(N)=O)NC(=O)[C@H](CCCNC(=N)N)NC(=O)[C@H](CCCNC(=N)N)NC(=O)[C@H](CCSC)NC(=O)[C@H](CCCCN)NC(=O)[C@H](Cc1c[nH]c2ccccc12)NC(=O)[C@H](CCCCN)NC(=O)[C@H](CCCCN)NC(=O)CNC(=O)CNC(=O)c1ccc2c(c1)C(=O)OC21c2ccc(O)cc2Oc2cc(O)ccc21)[C@@H](C)CC)C(=O)N[C@@H](CCC(N)=O)C(=O)N[C@@H](CCCNC(=N)N)C(=O)O` [PNTlys] (5FAM-GGKKWKMRRNQFWIKIQR-OH), the “permeability coefficient / diffusion relative to PNT” value in [4] was “did not affect the behavior”.
Take `C[n+]1ccc(-c2c3nc(c(-c4cc[n+](C)cc4)c4ccc([nH]4)c(-c4cc[n+](C)cc4)c4nc(c(-c5cc[n+](C)cc5)c5ccc2[nH]5)C=C4)C=C3)cc1` [TMPyP]: the ROS production entry in the series on HeLa and G361 [5] is reported as “more pronounced increase”. Besides, in the series on HeLa and G361 [6], the “efficacy in MTT test” value is given as “higher efficacy”.
Consider `CO[C@H]1/C=C/O[C@@]2(C)Oc3c(C)c(O)c4c(O)c(c(/C=N/N5CCN(C)CC5)c(O)c4c3C2=O)NC(=O)/C(C)=C\C=C\[C@H](C)[C@H](O)[C@@H](C)[C@@H](O)[C@@H](C)[C@H](OC(C)=O)[C@@H]1C` [rifampicin], for which the solubility in water in series [7] was 0.14 % w/v.
Consider TNFα, for which, in [8], the “secreted IL6 relative to control cells” value is reported as “fivefold higher”. Besides, the “secreted IL6” value in series [8] (TNFα 10 ng/mL) is recorded as “up to 0.058 pg/mL/n° cells”.
In the case of “rhNGF: human recombinant Nerve Growth Factor”, the deamidation on storage result in series [9] (formulated solutions at different concentrations, −20 °C–+25 °C) is “no deamidation was observed”. Besides, the oxidation on storage entry in series [9] (formulations after 3–9 months of storage) is recorded as “only an oxidized rhNGF form was observed in some cases”.
For “tPA-DPNs: clinical formulation of tPA conjugated to soft discoidal polymeric nanoconstructs”, the original activity preserved entry in series [10] is “over 60%”. Moreover, the “clots dissolved / vessels” value in the series on blood clots (1.0 mg/kg, about 1 tenth of the clinical dose) came to 60%. Moreover, in the series with blood clots (intravenous, 2.5 mg/kg), the “blood clots resolved / vessels recanalized” value was about 90%.

These data come from paper PMC6359636, “Advances in Drug Delivery and Biomaterials: Facts and Vision” (Pharmaceutics, 2019).
